One experiment has as its system Abutilon theophrasti. Description: Pre-emergence herbicidal action, ABUTH. It is filed as in vivo. The note with it: dosage 320 g/ha, scored visually after 3 weeks vs untreated controls (100% = plants have died). In outline:
(§1)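 Application took place on the soil surface immediately after sowing into sandy loam, using aqueous WP or EC preparations with 0.2% wetting agent. Visual percent scoring followed 3 weeks later, untreated pots serving as reference.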
For `CCCn1nnnc1NC(=O)c1ccc(C(F)F)c(CS(C)(=O)=O)c1SC` [Example 3-172], the “herbicidal activity ABUTH” value turned out to be 100%.
On to `CCn1nnnc1NC(=O)c1ccc(C(F)(F)F)c(C[S+](C)[O-])c1SC` (stereo not shown) [Example 2-162], for which the “herbicidal activity ABUTH” value was 100%.
Same read-out and setting: under `Cn1nnnc1NC(=O)c1ccc(C(F)(F)F)c(CS(C)(=O)=O)c1C(F)(F)C(F)(F)F` [Example 1-552] stands 100%; under `CCSCc1c(C(F)F)ccc(C(=O)Nc2nnnn2CC)c1Cl` [Example 2-323], 100%; under `CCn1nnnc1NC(=O)c1ccc(C(F)F)c(CSC)c1SC` [Example 2-170], 100%.
As for `CSCc1c(C(F)(F)F)ccc(C(=O)Nc2nnnn2C)c1C` [Example 1-83], the “herbicidal activity ABUTH” value amounted to 100%.
For `CCn1nnnc1NC(=O)c1ccc(C(F)F)c(CSC)c1Cl` [Example 2-320], the “herbicidal activity ABUTH” value is 100%.
Same read-out and setting: under `CCCn1nnnc1NC(=O)c1ccc(C(F)(F)F)c(CS(C)(=O)=O)c1SC` [Example 3-163] stands 100%; under `CCCn1nnnc1NC(=O)c1ccc(C(F)F)c(C[S+](C)[O-])c1SC` (stereo not shown) [Example 3-171], 100%; under `CSc1c(C(=O)Nc2nnnn2C)ccc(C(F)F)c1C[S+](C)[O-]` (stereo not shown) [Example 1-171], 100%.

The test system of a further experiment is Hordeum murinum. Description: Pre-emergence herbicidal action, HORMU. It is filed as in vivo. The note with it: dosage 320 g/ha, scored visually after 3 weeks vs untreated controls (100% = plants have died). From the text: (§2) 1. Pre-Emergence Herbicidal Action Against Harmful Plants Seeds of monocotyledonous and dicotyledonous weed plants and crop plants are laid out in sandy loam soil in wood-fiber pots and covered with soil. The compounds of the invention, formulated in the form of wettable powders (WP) or as emulsion concentrates (EC), are then applied to the surface of the covering soil in the form of an aqueous suspension or emulsion at a water application rate equating to 600 to 800 l/ha, with addition of 0.2% wetting agent. After the treatment, the pots are placed in a greenhouse and kept under good growth conditions for the trial plants. The damage to the test plants is scored visually after a test period of 3 weeks by comparison with untreated controls (herbicidal activity in percent (%): 100% activity=the plants have died, 0% activity=like control plants). […] The tables below illustrate, in an exemplary manner, the […] herbicidal action of the compounds according to the invention, the herbicidal activity being stated in percent. [table] In the experiments that follow, herbicidal action of numerous inventive compounds and the known compounds that are structurally closest from D1 (WO 2012/028579 A1) and D2 (WO 2018/202535 A1) were compared under the above-specified conditions by the pre-emergence and post-emergence method. The example numbers given in the tables relate to the compounds disclosed in the respective documents. In addition to the compounds disclosed in D1 and D2, the following compounds V-1 to V-14 that are encompassed by D1 or D2 but are not compounds specified therein were used in the comparative experiments: • V-1: 2-(methylsulfanyl)-3-(methylsulfinyl)-N-(1-methyl-1H-tetrazol-5-yl)-4-(trifluoromethyl)benzamide • V-2: 2-(methylsulfanyl)-3-(methylsulfonyl)-N-(1-methyl-1H-tetrazol-5-yl)-4-(trifluoromethyl)benzamide • V-3: 2,3-bis(ethylsulfanyl)-N-(1-methyl-1H-tetrazol-5-yl)-4-(trifluoromethyl)benzamide • V-4: 2-chloro-3-(ethylsulfanyl)-N-(1-methyl-1H-tetrazol-5-yl)-4-(trifluoromethyl)benzamide • V-5: 2-chloro-4-iodo-3-(methylsulfanyl)-N-(1-methyl-1H-tetrazol-5-yl)benzamide • V-6: 2-chloro-4-iodo-3-(methylsulfinyl)-N-(1-methyl-1H-tetrazol-5-yl)benzamide • V-7: 2-chloro-4-iodo-3-(methylsulfonyl)-N-(1-methyl-1H-tetrazol-5-yl)benzamide • V-8: 2-bromo-3-(methylsulfanyl)-N-(1-methyl-1H-tetrazol-5-yl)-4-(trifluoromethyl)benzamide • V-9: 2-bromo-3-(methylsulfinyl)-N-(1-methyl-1H-tetrazol-5-yl)-4-(trifluoromethyl)benzamide • V-10: 2-bromo-3-(methylsulfonyl)-N-(1-methyl-1H-tetrazol-5-yl)-4-(trifluoromethyl)benzamide • V-11: 2-bromo-3-(ethylsulfanyl)-N-(1-methyl-1H-tetrazol-5-yl)-4-(trifluoromethyl)benzamide • V-12: 2-bromo-3-(ethylsulfinyl)-N-(1-methyl-1H-tetrazol-5-yl)-4-(trifluoromethyl)benzamide • V-13: 2-bromo-3-(ethylsulfonyl)-N-(1-methyl-1-1H-tetrazol-5-yl)-4-(trifluoromethyl)benzamide • V-14: 2-cyclopropyl-3-(ethylsulfanyl)-N-(1-methyl-1H-tetrazol-5-yl)-4-(trifluoromethyl)benzamide Herbicidal Pre-Emergence Action: […]
As to `CCCn1nnnc1NC(=O)c1ccc(C(F)F)c(CS(C)(=O)=O)c1SC` [Example 3-172], the “herbicidal activity HORMU” value was determined as 80%.
For the compound `CCn1nnnc1NC(=O)c1ccc(C(F)(F)F)c(C[S+](C)[O-])c1SC` (stereo not shown) [Example 2-162], the “herbicidal activity HORMU” value is recorded as 90%.
Still for that read-out and setting: under `Cn1nnnc1NC(=O)c1ccc(C(F)(F)F)c(CS(C)(=O)=O)c1C(F)(F)C(F)(F)F` [Example 1-552] stands 80%; under `CCn1nnnc1NC(=O)c1ccc(C(F)F)c(CSC)c1SC` [Example 2-170], 80%.
The same measure, in the same setting: under `CCCn1nnnc1NC(=O)c1ccc(C(F)(F)F)c(CS(C)(=O)=O)c1SC` [Example 3-163] stands 90%.
On to `CCCn1nnnc1NC(=O)c1ccc(C(F)F)c(C[S+](C)[O-])c1SC` (stereo not shown) [Example 3-171], for which the “herbicidal activity HORMU” value worked out at 90%.
Same read-out and setting: under `CSc1c(C(=O)Nc2nnnn2C)ccc(C(F)F)c1C[S+](C)[O-]` (stereo not shown) [Example 1-171] stands 80%.

For the next experiment, the system named is Lolium multiflorum. Description: Pre-emergence herbicidal action, LOLMU. Format: in vivo. The note with it: dosage 320 g/ha, scored visually after 3 weeks vs untreated controls (100% = plants have died).
Description: as §2
On to `CCSCc1c(C(F)F)ccc(C(=O)Nc2nnnn2CC)c1Cl` [Example 2-323], for which the “herbicidal activity LOLMU” value was 100%.
Take `CSCc1c(C(F)(F)F)ccc(C(=O)Nc2nnnn2C)c1C` [Example 1-83]: the “herbicidal activity LOLMU” value is 100%.
Turning to `CCn1nnnc1NC(=O)c1ccc(C(F)F)c(CSC)c1Cl` [Example 2-320], the “herbicidal activity LOLMU” value is on record as 90%.

The next experiment relates to Stellaria media. Put plainly: Pre-emergence herbicidal action, STEME. The settings on record: dosage 320 g/ha, scored visually after 3 weeks vs untreated controls (100% = plants have died). It is filed as in vivo. In a few lines: as §1
As to `CCCn1nnnc1NC(=O)c1ccc(C(F)F)c(CS(C)(=O)=O)c1SC` [Example 3-172], the “herbicidal activity STEME” value amounted to 100%.
`CCn1nnnc1NC(=O)c1ccc(C(F)(F)F)c(C[S+](C)[O-])c1SC` (stereo not shown) [Example 2-162]: the “herbicidal activity STEME” value amounted to 100%.
As to `Cn1nnnc1NC(=O)c1ccc(C(F)(F)F)c(CS(C)(=O)=O)c1C(F)(F)C(F)(F)F` [Example 1-552], the “herbicidal activity STEME” value was found to be 100%.
Turning to `CCSCc1c(C(F)F)ccc(C(=O)Nc2nnnn2CC)c1Cl` [Example 2-323], the “herbicidal activity STEME” value worked out at 100%.
The same measure, in the same setting: under `CCn1nnnc1NC(=O)c1ccc(C(F)F)c(CSC)c1SC` [Example 2-170] stands 100%.
As for `CSCc1c(C(F)(F)F)ccc(C(=O)Nc2nnnn2C)c1C` [Example 1-83], the “herbicidal activity STEME” value was 100%.
With `CCn1nnnc1NC(=O)c1ccc(C(F)F)c(CSC)c1Cl` [Example 2-320], the “herbicidal activity STEME” value came to 100%.
Take `CCCn1nnnc1NC(=O)c1ccc(C(F)(F)F)c(CS(C)(=O)=O)c1SC` [Example 3-163]: the “herbicidal activity STEME” value was determined as 100%.
On the same count and under the same terms, under `CCCn1nnnc1NC(=O)c1ccc(C(F)F)c(C[S+](C)[O-])c1SC` (stereo not shown) [Example 3-171] stands 100%.
Consider `CSc1c(C(=O)Nc2nnnn2C)ccc(C(F)F)c1C[S+](C)[O-]` (stereo not shown) [Example 1-171], for which the “herbicidal activity STEME” value is reported as 100%.

For the next experiment, the system named is Cyperus esculentus. Put plainly: Post-emergence herbicidal action, CYPES. Format: in vivo. Details: key: % herbicidal action vs untreated; 100 = plants died, 0 = like control. The settings on record: Dosage 80 g/ha. In outline:
(§3)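 One-leaf-stage weeds, raised from seed in greenhouse sandy loam, received a single foliar spray of compound as wettable powder or emulsion concentrate with 0.2% wetting agent added. Growth continued under optimal conditions for about 3 weeks before percent damage was scored by eye against controls.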
For the compound `CCn1nnnc1NC(=O)c1ccc(C(F)F)c(CSC)c1Cl` [Example 2-320], the “herbicidal action CYPES” value is 80.

The experiment is the same for the next values; noted with them: post-emergence, dosage 80 g/ha.
In the case of `CCSCc1c(C(F)F)ccc(C(=O)Nc2nnnn2CC)c1Cl` [Example 2-323], the “herbicidal action CYPES” value is recorded as 80%.
Take `CSCc1c(C(F)(F)F)ccc(C(=O)Nc2nnnn2C)c1C` [Example 1-83]: the “herbicidal action CYPES” value is reported as 90%.

Another experiment has as its system Veronica persica. Put plainly: Post-emergence herbicidal action, VERPE. Format: in vivo. Also noted: key: % herbicidal action vs untreated; 100 = plants died, 0 = like control. The note with it: Dosage 80 g/ha. In a few lines: as §3
For `CCCn1nnnc1NC(=O)c1ccc(C(F)F)c(CS(C)(=O)=O)c1SC` [Example 3-172], the “herbicidal action VERPE” value is given as 100.
With `CCn1nnnc1NC(=O)c1ccc(C(F)(F)F)c(C[S+](C)[O-])c1SC` (stereo not shown) [Example 2-162], the “herbicidal action VERPE” value came to 90.
For `Cn1nnnc1NC(=O)c1ccc(C(F)(F)F)c(CS(C)(=O)=O)c1C(F)(F)C(F)(F)F` [Example 1-552], the “herbicidal action VERPE” value was determined as 100.
With `CCn1nnnc1NC(=O)c1ccc(C(F)F)c(CSC)c1SC` [Example 2-170], the “herbicidal action VERPE” value is recorded as 90.
On to `CCn1nnnc1NC(=O)c1ccc(C(F)F)c(CSC)c1Cl` [Example 2-320], for which the “herbicidal action VERPE” value came out at 100.
Take `CCCn1nnnc1NC(=O)c1ccc(C(F)(F)F)c(CS(C)(=O)=O)c1SC` [Example 3-163]: the “herbicidal action VERPE” value came out at 100.
For the compound `CCCn1nnnc1NC(=O)c1ccc(C(F)F)c(C[S+](C)[O-])c1SC` (stereo not shown) [Example 3-171], the “herbicidal action VERPE” value is 100.
`CSc1c(C(=O)Nc2nnnn2C)ccc(C(F)F)c1C[S+](C)[O-]` (stereo not shown) [Example 1-171]: the “herbicidal action VERPE” value came out at 100.

The experiment is the same for the next values; noted with them: post-emergence, dosage 80 g/ha.
On to `CCSCc1c(C(F)F)ccc(C(=O)Nc2nnnn2CC)c1Cl` [Example 2-323], for which the “herbicidal action VERPE” value worked out at 100%.
As for `CSCc1c(C(F)(F)F)ccc(C(=O)Nc2nnnn2C)c1C` [Example 1-83], the “herbicidal action VERPE” value was determined as 100%.
